Test results reported in BindingDB's records for doi:10.1021/jm990236h (University of Michigan, 2000).

Tests used:
[1] = Antiviral activity was evaluated by RT (reverse transcriptase) activity in cells acutely infected with HIV-1
[2] = Antiviral activity was evaluated by Reverse transcriptase activity in cells acutely infected with HIV-1

| IC50 [1] [nM] | IC50 [2] [nM] | Compound |
| --- | --- | --- |
| > 100000 |  | CN1N=C(NC(=O)C(C)(C)C)c2cn(C3O[C@H](CO)[C@@H](O)[C@H]3O)c3ncnc1c23 (stereo partly drawn) |
|  | 100 | CCCCCCCC(=O)NC1=NN(C)c2ncnc3c2c1cn3C1O[C@H](CO)[C@@H](O)[C@H]1O (stereo partly drawn) |
|  | 250 | CCCCCCCCCC(=O)NC1=NN(C)c2ncnc3c2c1cn3C1O[C@H](CO)[C@@H](O)[C@H]1O (stereo partly drawn) |
| 350 |  | CCCCCC(=O)NC1=NN(C)c2ncnc3c2c1cn3C1O[C@H](CO)[C@@H](O)[C@H]1O (stereo partly drawn) |
| > 100000 |  | CN1N=C(NC(=O)c2ccccc2)c2cn(C3O[C@H](CO)[C@@H](O)[C@H]3O)c3ncnc1c23 (stereo partly drawn) |
| 8400 |  | CCC(=O)NC1=NN(C)c2ncnc3c2c1cn3C1O[C@H](CO)[C@@H](O)[C@H]1O (stereo partly drawn) |
|  | 1000 | CCCCCCCCCCCC(=O)NC1=NN(C)c2ncnc3c2c1cn3C1O[C@H](CO)[C@@H](O)[C@H]1O (stereo partly drawn) |
| 6800 |  | CC(=O)NC1=NN(C)c2ncnc3c2c1cn3C1O[C@H](CO)[C@@H](O)[C@H]1O (stereo partly drawn) |
| 35 |  | CCCCCCC(=O)NC1=NN(C)c2ncnc3c2c1cn3C1O[C@H](CO)[C@@H](O)[C@H]1O (stereo partly drawn) |
| 500 |  | CCCC(=O)NC1=NN(C)c2ncnc3c2c1cn3C1O[C@H](CO)[C@@H](O)[C@H]1O (stereo partly drawn) |
| 8000 |  | CC(C)C(=O)NC1=NN(C)c2ncnc3c2c1cn3C1O[C@H](CO)[C@@H](O)[C@H]1O (stereo partly drawn) |
|  | 800 | CCCCCCCCC(=O)NC1=NN(C)c2ncnc3c2c1cn3C1O[C@H](CO)[C@@H](O)[C@H]1O (stereo partly drawn) |
| 800 |  | CCCCC(=O)NC1=NN(C)c2ncnc3c2c1cn3C1O[C@H](CO)[C@@H](O)[C@H]1O (stereo partly drawn) |
